US20210045385A1, “PYRIDAZINONE-SUBSTITUTED KETOXIMES AS HERBICIDES” (FMC Corporation, priority 2018, published 2021)

Columns and labels:
Type in all cases: in vivo
[1] = system: Italian ryegrass (Lolium mutiflorum); assay: Test C preemergence, visual plant response rating; conditions: Test C, 0 is no effect, 100 is complete control
Summary of the method: (§1)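 Visual injury on a 0 (no effect) to 100 (complete control) scale versus untreated controls, scored approximately 10 d after treatment under greenhouse conditions. Treatments used surfactant-containing non-phytotoxic solvent formulations, sprayed onto loam–sand soil preemergence or onto one- to two-leaf plants 2–10 cm tall postemergence.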

[2] = system: barnyardgrass (Echinochloa crus-galli); assay: Test C preemergence, visual plant response rating; conditions: Test C, 0 is no effect, 100 is complete control
Summary of the method: as §1

[3] = system: foxtail, giant (giant foxtail, Setaria faberi); assay: Test C preemergence, visual plant response rating; conditions: Test C, 0 is no effect, 100 is complete control
Summary of the method: as §1

kochia (Bassia scoparia) [4] = assay: Test C preemergence, visual plant response rating; conditions: Test C, 0 is no effect, 100 is complete control
Summary of the method: as §1

[5] = system: pigweed (Amaranthus retroflexus); assay: Test C preemergence, visual plant response rating; conditions: Test C, 0 is no effect, 100 is complete control
Summary of the method: as §1

[6] = system: ragweed (common ragweed, Ambrosia artemisiifolia); assay: Test C preemergence, visual plant response rating; conditions: Test C, 0 is no effect, 100 is complete control
Summary of the method: as §1

[7] = system: Italian ryegrass (Lolium mutiflorum); assay: Test C postemergence, visual plant response rating
Summary of the method: as §1

[8] = system: barnyardgrass (Echinochloa crus-galli); assay: Test C postemergence, visual plant response rating
Summary of the method: as §1

[9] = system: blackgrass (Alopecurus myosuroides); assay: Test C postemergence, visual plant response rating
Summary of the method: as §1

corn (Zea mays) = assay: Test C postemergence, visual plant response rating
Summary of the method: as §1

[10] = system: foxtail, giant (giant foxtail, Setaria faberi); assay: Test C postemergence, visual plant response rating
Summary of the method: as §1

[11] = system: galium (catchweed bedstraw, Galium aparine); assay: Test C postemergence, visual plant response rating
Summary of the method: as §1

kochia (Bassia scoparia) [12] = assay: Test C postemergence, visual plant response rating
Summary of the method: as §1

[13] = system: pigweed (Amaranthus retroflexus); assay: Test C postemergence, visual plant response rating
Summary of the method: as §1

[14] = system: ragweed (common ragweed, Ambrosia artemisiifolia); assay: Test C postemergence, visual plant response rating
Summary of the method: as §1

[15] = system: wheat (Triticum aestivum); assay: Test C postemergence, visual plant response rating
Summary of the method: as §1

[16] = system: barnyardgrass (Echinochloa crus-galli); assay: Test D flooded paddy test, visual plant response rating; conditions: 250 g ai/ha, scale 0 to 100 (0 no effect, 100 complete control), 13 to 15 d
Summary of the method: (§2)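 Visual injury scores, 0 (no effect) to 100 (complete control), were assigned after 13 to 15 d in the greenhouse by comparison with controls. Test compounds had been added to paddy water covering soil by 3 cm at the 2-leaf stage.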

[17] = system: duck salad (Heteranthera limosa); assay: as above; conditions: 250 g ai/ha, scale 0 to 100 (0 no effect, 100 complete control), 13 to 15 d
Summary of the method: as §2

rice (Oryza sativa) = assay: as above; conditions: 250 g ai/ha, scale 0 to 100 (0 no effect, 100 complete control), 13 to 15 d
Summary of the method: as §2

[18] = system: sedge umbrella (small-flower umbrella sedge, Cyperus difformis); assay: as above; conditions: 250 g ai/ha, scale 0 to 100 (0 no effect, 100 complete control), 13 to 15 d
Summary of the method: as §2

[19] = Test C, postemergence, 125 g ai/ha

Row | SMILES | Ryegrass, Italian plant response rating (0 to 100 scale) ([1]; 31 g ai/ha) | Ryegrass, Italian plant response rating (0 to 100 scale) ([1]; 125 g ai/ha) | Barnyardgrass plant response rating (0 to 100 scale) ([2]; 31 g ai/ha) | Barnyardgrass plant response rating (0 to 100 scale) ([2]; 125 g ai/ha) | Foxtail, Giant plant response rating (0 to 100 scale) ([3]; 31 g ai/ha) | Foxtail, Giant plant response rating (0 to 100 scale) ([3]; 125 g ai/ha) | Kochia plant response rating (0 to 100 scale) (kochia (Bassia scoparia) [4]; 31 g ai/ha) | Kochia plant response rating (0 to 100 scale) (kochia (Bassia scoparia) [4]; 125 g ai/ha) | Pigweed plant response rating (0 to 100 scale) ([5]; 31 g ai/ha) | Pigweed plant response rating (0 to 100 scale) ([5]; 125 g ai/ha) | Ragweed plant response rating (0 to 100 scale) ([6]; 31 g ai/ha) | Ragweed plant response rating (0 to 100 scale) ([6]; 125 g ai/ha) | Ryegrass, Italian plant response rating (0 to 100 scale) ([7]; Postemergence, 31 g ai/ha) | Ryegrass, Italian plant response rating (0 to 100 scale) [7, 19] | Barnyardgrass plant response rating (0 to 100 scale) ([8]; Postemergence, 31 g ai/ha) | Barnyardgrass plant response rating (0 to 100 scale) [8, 19] | Blackgrass plant response rating (0 to 100 scale) ([9]; Postemergence, 31 g ai/ha) | Blackgrass plant response rating (0 to 100 scale) [9, 19] | Corn plant response rating (0 to 100 scale) (corn (Zea mays); Postemergence, 31 g ai/ha) | Corn plant response rating (0 to 100 scale) (corn (Zea mays); [19]) | further results
1 | C#CCO/N=C(/c1cccc(/C=C\Cl)c1)c1c(O)c(C)nn(C)c1=O [Compound 261] | 0 | 70 | 0 | 0 | 0 | 10 | 0 | 0 | 0 | 10 | 0 | 10 | 0 | 60 | 20 | 40 | 0 | 60 | 0 | 10 | Foxtail, Giant plant response rating (0 to 100 scale) ([10]; Postemergence, 31 g ai/ha): 10; Foxtail, Giant plant response rating (0 to 100 scale) [10, 19]: 50; Galium plant response rating (0 to 100 scale) ([11]; Postemergence, 31 g ai/ha): 40; Galium plant response rating (0 to 100 scale) [11, 19]: 80; Kochia plant response rating (0 to 100 scale) (kochia (Bassia scoparia) [12]; Postemergence, 31 g ai/ha): 30; Kochia plant response rating (0 to 100 scale) (kochia (Bassia scoparia) [12]; [19]): 60; Pigweed plant response rating (0 to 100 scale) ([13]; Postemergence, 31 g ai/ha): 50; Pigweed plant response rating (0 to 100 scale) [13, 19]: 60; Ragweed plant response rating (0 to 100 scale) ([14]; Postemergence, 31 g ai/ha): 40; Ragweed plant response rating (0 to 100 scale) [14, 19]: 60; Wheat plant response rating (0 to 100 scale) ([15]; Postemergence, 31 g ai/ha): 0; Wheat plant response rating (0 to 100 scale) [15, 19]: 50; Plant response rating, Barnyardgrass (Flood) [16]: 0; Plant response rating, Ducksalad (Flood) [17]: 0; Plant response rating, Rice (Flood) (rice (Oryza sativa)): 0; Plant response rating, Sedge, Umbrella (Flood) [18]: 0
2 | CO/N=C(\c1cccc(/C=C/Cl)c1)c1c(O)c(C)nn(C)c1=O [Compound 286] | 0 | 10 | 60 | 90 | 0 | 50 | 0 | 0 | 0 | 10 | 0 | 20 | 0 | 0 | 0 | 30 | 20 | 0 | 0 | 0 | Foxtail, Giant plant response rating (0 to 100 scale) ([10]; Postemergence, 31 g ai/ha): 0; Foxtail, Giant plant response rating (0 to 100 scale) [10, 19]: 20; Galium plant response rating (0 to 100 scale) ([11]; Postemergence, 31 g ai/ha): 50; Galium plant response rating (0 to 100 scale) [11, 19]: 60; Kochia plant response rating (0 to 100 scale) (kochia (Bassia scoparia) [12]; Postemergence, 31 g ai/ha): 10; Kochia plant response rating (0 to 100 scale) (kochia (Bassia scoparia) [12]; [19]): 30; Pigweed plant response rating (0 to 100 scale) ([13]; Postemergence, 31 g ai/ha): 20; Pigweed plant response rating (0 to 100 scale) [13, 19]: 50; Ragweed plant response rating (0 to 100 scale) ([14]; Postemergence, 31 g ai/ha): 30; Ragweed plant response rating (0 to 100 scale) [14, 19]: 50; Wheat plant response rating (0 to 100 scale) ([15]; Postemergence, 31 g ai/ha): 30; Wheat plant response rating (0 to 100 scale) [15, 19]: 30; Plant response rating, Barnyardgrass (Flood) [16]: 0; Plant response rating, Ducksalad (Flood) [17]: 0; Plant response rating, Rice (Flood) (rice (Oryza sativa)): 0; Plant response rating, Sedge, Umbrella (Flood) [18]: 0
3 | C#CCO/N=C(\c1cccc(Br)c1)c1c(O)c(C)nn(C)c1=O [Compound 278] | 20 | 100 | 0 | 20 | 30 | 60 | 0 | 70 | 0 | 0 | 10 | 40 | 70 | 80 | 40 | 50 | 50 | 90 | 0 | 20 | Foxtail, Giant plant response rating (0 to 100 scale) ([10]; Postemergence, 31 g ai/ha): 30; Foxtail, Giant plant response rating (0 to 100 scale) [10, 19]: 70; Galium plant response rating (0 to 100 scale) ([11]; Postemergence, 31 g ai/ha): 80; Galium plant response rating (0 to 100 scale) [11, 19]: 90; Kochia plant response rating (0 to 100 scale) (kochia (Bassia scoparia) [12]; Postemergence, 31 g ai/ha): 40; Kochia plant response rating (0 to 100 scale) (kochia (Bassia scoparia) [12]; [19]): 80; Pigweed plant response rating (0 to 100 scale) ([13]; Postemergence, 31 g ai/ha): 30; Pigweed plant response rating (0 to 100 scale) [13, 19]: 70; Ragweed plant response rating (0 to 100 scale) ([14]; Postemergence, 31 g ai/ha): 60; Ragweed plant response rating (0 to 100 scale) [14, 19]: 80; Wheat plant response rating (0 to 100 scale) ([15]; Postemergence, 31 g ai/ha): 40; Wheat plant response rating (0 to 100 scale) [15, 19]: 80; Plant response rating, Barnyardgrass (Flood) [16]: 0; Plant response rating, Ducksalad (Flood) [17]: 0; Plant response rating, Rice (Flood) (rice (Oryza sativa)): 0; Plant response rating, Sedge, Umbrella (Flood) [18]: 0
